Source: patent US4468511A, “C-20- And C-23-Modified macrolide derivatives” (Eli Lilly and Company, priority 1983, dated 1984)
≈ marks a conversion by molar mass, not a printed value. Read-outs that look alike come from different tables or passages of the source.

Tests used:
[1] = tested on: Staphylococcus epidermidis EPI1; test: microbe, parasite or virus in culture; assay type: cell-based; conditions: Staphylococcus epidermidis, EPI1
Method: (§1) The MIC's in Table II were determined by standard agar-dilution assays. The MIC's in Table III were obtained using a conventional broth-dilution microtiter test.

[2] = tested on: Staphylococcus aureus S13E; test: microbe, parasite or virus in culture; assay type: cell-based
Method: as §1

[3] = tested on: Pasteurella multocida; test: Pasteurella infection in one-day old chicks; assay type: in vivo; conditions: subcutaneous, 30 mg/kg × 2, 1 and 4 hours post-challenge
Method: Certain of the formula 1 compounds of this invention have also shown in vivo activity against infections induced by gram-negative bacteria. Table V summarizes the results of tests in which illustrative compounds were evaluated against a Pasteurella infection in one-day old chicks. The compounds were administered parenterally after challenge of the chicks with Pasteurella multocida (0.1 ml of a 10^-4 dilution of a twenty-hour tryptose broth culture of an avian P. multocida given subcutaneously). In these tests, unless indicated otherwise, all non-medicated infected chicks died within 24 hours of Pasteurella challenge. In the tests summarized in Table V, the compounds were administered by subcutaneous injection at a dosage of 30 mg/kg, 1 and 4 hours post-challenge of the chicks with P. multocida.

[4] = tested on: Streptococcus pyogenes C203; test: Protection of mice experimentally infected with S. pyogenes C203; assay type: in vivo; conditions: mg/kg × 2, doses given 1 and 4 hours postinfection
Method: Some of the derivatives of this invention have shown in vivo antimicrobial activity against experimentally-induced infections in laboratory animals. When two doses of test compound were administered to mice experimentally infected with S. pyogenes C203, the activity observed was measured as an ED50 value [effective dose in mg/kg to protect 50% of the test animals: see Warren Wick, et al., J. Bacteriol. 81, 233-235 (1961)].

[5] = tested on: Mycoplasma gallisepticum 34159; test: MIC, conventional broth-dilution microtiter test; assay type: cell-based; conditions: Mycoplasmoides gallisepticum
Outline: (§2)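 Agar plates containing graded compound levels gave the Klebsiella value. Graded broth dilutions in microtiter plates gave the Pasteurella and Mycoplasma values.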

[6] = tested on: Mycoplasma gallisepticum 41313; test: MIC, conventional broth-dilution microtiter test; assay type: cell-based; conditions: Mycoplasmoides gallisepticum
Outline: as §2

[7] = tested on: Pasteurella hemolytica 22C; test: MIC, conventional broth-dilution microtiter test; assay type: cell-based; conditions: broth-dilution microtiter; Pasteurella hemolytica 22C; read-out: MIC
Outline: as §2

[8] = tested on: Staphylococcus aureus; test: MIC, conventional broth-dilution microtiter test; assay type: cell-based; conditions: broth-dilution microtiter, read-out: MIC
Method: (§3) Certain of the derivatives are active against some gram-negative bacteria, such as Pasteurella species. The MIC's in Table II were determined by standard agar-dilution assays. The MIC's in Table III were obtained using a conventional broth-dilution microtiter test.

[9] = tested on: Pasteurella multocida 60A; test: MIC, conventional broth-dilution microtiter test; assay type: cell-based
Outline: as §2

[10] = tested on: Pasteurella hemolytica 23C; test: MIC, conventional broth-dilution microtiter test; assay type: cell-based
Outline: as §2

[11] = tested on: Mycoplasma hyorhinis; test: MIC, conventional broth-dilution microtiter test; assay type: cell-based; conditions: broth-dilution microtiter; Mycoplasma hyorhinis; read-out: MIC
Outline: as §2

[12] = tested on: Pasteurella multocida 68C; test: MIC, conventional broth-dilution microtiter test; assay type: cell-based; conditions: Pasteurella multocida, 68C
Outline: as §2

[13] = tested on: Pasteurella hemolytica 41D; test: MIC, conventional broth-dilution microtiter test; assay type: cell-based
Outline: as §2

[14] = tested on: Mycoplasma synoviae; test: MIC, conventional broth-dilution microtiter test; assay type: cell-based; conditions: Mycoplasmopsis synoviae; broth-dilution microtiter; Mycoplasma synoviae; read-out: MIC
Outline: as §2

[15] = tested on: Streptococcus sp. 80; test: MIC, conventional broth-dilution microtiter test; assay type: cell-based
Method: as §3

[16] = tested on: Mycoplasma gallisepticum; test: MIC, conventional broth-dilution microtiter test; assay type: cell-based; conditions: Mycoplasmoides gallisepticum
Outline: as §2

[17] = tested on: Pasteurella multocida 17E; test: MIC, conventional broth-dilution microtiter test; assay type: cell-based
Outline: as §2

[18] = tested on: Pasteurella multocida 40G; test: MIC, conventional broth-dilution microtiter test; assay type: cell-based
Outline: as §2

[19] = tested on: Pasteurella multocida 22A; test: MIC, conventional broth-dilution microtiter test; assay type: cell-based
Outline: as §2

[20] = tested on: Staphylococcus aureus V41; test: MIC, standard agar-dilution assay; assay type: cell-based; conditions: Staphylococcus aureus, V41
Method: as §3

[21] = tested on: Streptococcus pneumoniae Park I; test: MIC, standard agar-dilution assay; assay type: cell-based; conditions: agar-dilution; Streptococcus pneumoniae Park I; read-out: MIC
Method: as §3

[22] = tested on: Klebsiella pneumoniae X26; test: MIC, standard agar-dilution assay; assay type: cell-based; conditions: agar-dilution; Klebsiella pneumoniae X26; read-out: MIC
Outline: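 Two formats were used. Broth dilution in microtiter plates served for Pasteurella and Mycoplasma, while agar dilution served for Klebsiella.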

[23] = tested on: Streptococcus pyogenes C203; test: MIC, standard agar-dilution assay; assay type: cell-based
Method: as §3

[24] = tested on: Escherichia coli EC14; test: MIC, standard agar-dilution assay; assay type: cell-based
Method: as §3

[25] = tested on: Staphylococcus aureus X1.1; test: MIC, standard agar-dilution assay; assay type: cell-based; conditions: Staphylococcus aureus, X1.1
Outline: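 A standard agar-dilution assay was used to test compounds against the Staphylococcus aureus isolate X1.1. Bacterial growth on agar with different compound concentrations was assessed, and the minimum inhibitory concentration was recorded in ug/mL.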

[26] = tested on: Streptococcus Group D X66; test: MIC, standard agar-dilution assay; assay type: cell-based
Method: as §3

[27] = tested on: Streptococcus pyogenes 9960; test: MIC, standard agar-dilution assay; assay type: cell-based
Method: as §3

[28] = tested on: Escherichia coli TEM; test: MIC, standard agar-dilution assay; assay type: cell-based
Outline: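 Antibacterial activity toward the gram-negative organism Escherichia coli was assessed by conventional agar dilution. The MIC, reported in ug/mL, is the minimum compound concentration on agar that prevents growth.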

[29] = tested on: Klebsiella pneumoniae KAE; test: MIC, standard agar-dilution assay; assay type: cell-based; conditions: agar-dilution; Klebsiella pneumoniae KAE; read-out: MIC
Outline: as §2

[30] = tested on: Haemophilus influenzae C.L.; test: MIC, standard agar-dilution assay; assay type: cell-based
Method: as §1

[31] = tested on: Staphylococcus aureus X400; test: MIC, standard agar-dilution assay; assay type: cell-based
Method: as §1

[32] = tested on: Staphylococcus epidermidis EPI2; test: MIC, standard agar-dilution assay; assay type: cell-based; conditions: agar-dilution; Staphylococcus epidermidis EPI2; read-out: MIC
Method: as §1

[33] = tested on: Haemophilus influenzae 76; test: MIC, standard agar-dilution assay; assay type: cell-based
Method: as §1

## CCC1OC(=O)CC(O)C(C)C(OC2OC(C)C(O)C(N(C)C)C2O)C(CCNCCc2ccccc2)CC(C)C(=O)C=CC(C)=CC1CO (stereo not drawn) [Compound 5, 20-N-Phenethylamino-20-deoxy-20-dihydro-OMT]
[1]
  MIC: 4 µg/mL (≈ 5.69 µM)
[2]
  MIC: 8 µg/mL (≈ 11.4 µM)
[3]
  Number of Deaths/Number Treated: 1/10
[4]; C203, mice, oral, read-out: ED50 Oral
  ED50: > 100 mg/kg
[4]; C203, sc, mice, subcutaneous, read-out: ED50 Subcutaneous
  ED50: 7.2 mg/kg
[5]; 34159
  MIC: 50 µg/mL (≈ 71.1 µM)
[6]; 41313
  MIC: 50 µg/mL (≈ 71.1 µM)
[7]
  MIC: 6.25 µg/mL (≈ 8.89 µM)
[8]
  MIC: 6.25 µg/mL (≈ 8.89 µM)
[9]; broth-dilution microtiter, Pasteurella multocida 60A, Avian isolate, read-out: MIC
  MIC: 3.12 µg/mL (≈ 4.44 µM)
[10]; broth-dilution microtiter, Pasteurella hemolytica 23C, read-out: MIC
  MIC: 3.12 µg/mL (≈ 4.44 µM)
[11]
  MIC: > 50 µg/mL
[12]
  MIC: 1.56 µg/mL (≈ 2.22 µM)
[13]; broth-dilution microtiter, Pasteurella hemolytica 41D, read-out: MIC
  MIC: 3.12 µg/mL (≈ 4.44 µM)
[14]
  MIC: 3.12 µg/mL (≈ 4.44 µM)
[15]; Streptococcus, SP.80
  MIC: 1.56 µg/mL (≈ 2.22 µM)
[16]
  MIC: 1.56 µg/mL (≈ 2.22 µM)
[17]; broth-dilution microtiter, Pasteurella multocida 17E, Bovine isolate, read-out: MIC
  MIC: 3.12 µg/mL (≈ 4.44 µM)
[18]; broth-dilution microtiter, Pasteurella multocida 40G, read-out: MIC
  MIC: 6.25 µg/mL (≈ 8.89 µM)
[19]; broth-dilution microtiter, Pasteurella multocida 22A, read-out: MIC
  MIC: 6.25 µg/mL (≈ 8.89 µM)
[20]
  MIC: 8 µg/mL (≈ 11.4 µM)
[21]
  MIC: 1 µg/mL (≈ 1.42 µM)
[22]
  MIC: 4 µg/mL (≈ 5.69 µM)
[23]; Streptococcus pyogenes, C203
  MIC: 2 µg/mL (≈ 2.85 µM)
[24]; Escherichia coli, EC14
  MIC: 64 µg/mL (≈ 91 µM)
[25]
  MIC: 4 µg/mL (≈ 5.69 µM)
[26]
  MIC: 8 µg/mL (≈ 11.4 µM)
[27]; agar-dilution, Streptococcus 9960, read-out: MIC
  MIC: 16 µg/mL (≈ 22.8 µM)
[28]; Escherichia coli
  MIC: 8 µg/mL (≈ 11.4 µM)
[29]
  MIC: > 128 µg/mL
[30]; Haemophilus influenzae
  MIC: 8 µg/mL (≈ 11.4 µM)
[31]; Staphylococcus aureus, X400
  MIC: 16 µg/mL (≈ 22.8 µM)
[32]
  MIC: 16 µg/mL (≈ 22.8 µM)
[33]; Haemophilus influenzae, 76
  MIC: 8 µg/mL (≈ 11.4 µM)

## CCC1OC(=O)CC(O)C(C)C(OC2OC(C)C(O)C(N(C)C)C2O)C(CCOc2ccccc2)CC(C)C(=O)C=CC(C)=CC1CN1CCCCCCC1 (stereo not drawn) [Compound 34, 20-O-Phenyl-20-dihydro-23-Octahydroazocin-1-yl-OMT]
[1]
  MIC: 0.25 µg/mL (≈ 0.324 µM)
[2]
  MIC: 0.25 µg/mL (≈ 0.324 µM)
[3]
  Number of Deaths/Number Treated: 10/10
[5]; broth-dilution microtiter, Mycoplasma gallisepticum 34159, Resistant strain, read-out: MIC
  MIC: 50 µg/mL (≈ 64.8 µM)
[6]; broth-dilution microtiter, Mycoplasma gallisepticum 41313, Resistant strain, read-out: MIC
  MIC: 25 µg/mL (≈ 32.4 µM)
[7]
  MIC: 1.56 µg/mL (≈ 2.02 µM)
[8]
  MIC: 0.39 µg/mL (≈ 0.506 µM)
[9]; Pasteurella multocida, 60A
  MIC: 6.25 µg/mL (≈ 8.11 µM)
[10]; Pasteurella, 23C
  MIC: 3.12 µg/mL (≈ 4.05 µM)
[11]
  MIC: 50 µg/mL (≈ 64.8 µM)
[12]
  MIC: 3.12 µg/mL (≈ 4.05 µM)
[13]; Pasteurella, 41D
  MIC: 3.12 µg/mL (≈ 4.05 µM)
[14]
  MIC: 12.5 µg/mL (≈ 16.2 µM)
[15]; broth-dilution microtiter, Streptococcus sp. 80, read-out: MIC
  MIC: 0.78 µg/mL (≈ 1.01 µM)
[16]
  MIC: 0.097 µg/mL (≈ 0.126 µM)
[17]; Pasteurella multocida, 17E
  MIC: 3.12 µg/mL (≈ 4.05 µM)
[18]; Pasteurella multocida, 40G
  MIC: 3.12 µg/mL (≈ 4.05 µM)
[19]; Pasteurella multocida, 22A
  MIC: 6.25 µg/mL (≈ 8.11 µM)
[20]
  MIC: 0.25 µg/mL (≈ 0.324 µM)
[21]
  MIC: 0.12 µg/mL (≈ 0.156 µM)
[22]
  MIC: 8 µg/mL (≈ 10.4 µM)
[23]; agar-dilution, Streptococcus pyogenes C203, read-out: MIC
  MIC: 0.12 µg/mL (≈ 0.156 µM)
[24]; agar-dilution, Escherichia coli EC14, read-out: MIC
  MIC: > 128 µg/mL
[25]
  MIC: 0.25 µg/mL (≈ 0.324 µM)
[26]
  MIC: 2 µg/mL (≈ 2.59 µM)
[27]; 9960
  MIC: 2 µg/mL (≈ 2.59 µM)
[28]; agar-dilution, Escherichia coli TEM, read-out: MIC
  MIC: 8 µg/mL (≈ 10.4 µM)
[29]
  MIC: > 128 µg/mL
[30]; agar-dilution, Haemophilus influenzae C.L., Ampicillin-sensitive strain, read-out: MIC
  MIC: 4 µg/mL (≈ 5.19 µM)
[31]; agar-dilution, Staphylococcus aureus X400, Methicillin-resistant strain, read-out: MIC
  MIC: 0.5 µg/mL (≈ 0.648 µM)
[32]
  MIC: 0.12 µg/mL (≈ 0.156 µM)
[33]; agar-dilution, Haemophilus influenzae 76, Ampicillin-resistant strain, read-out: MIC
  MIC: 8 µg/mL (≈ 10.4 µM)
